Experimental findings from patent publication US9783527B2, “Indazole ureas and method of use” (AbbVie Inc., priority 2014, dated 2017) are described below.

The structures appear in SMILES notation.

Chain of human Nav1.7 (Q15858 whole entry): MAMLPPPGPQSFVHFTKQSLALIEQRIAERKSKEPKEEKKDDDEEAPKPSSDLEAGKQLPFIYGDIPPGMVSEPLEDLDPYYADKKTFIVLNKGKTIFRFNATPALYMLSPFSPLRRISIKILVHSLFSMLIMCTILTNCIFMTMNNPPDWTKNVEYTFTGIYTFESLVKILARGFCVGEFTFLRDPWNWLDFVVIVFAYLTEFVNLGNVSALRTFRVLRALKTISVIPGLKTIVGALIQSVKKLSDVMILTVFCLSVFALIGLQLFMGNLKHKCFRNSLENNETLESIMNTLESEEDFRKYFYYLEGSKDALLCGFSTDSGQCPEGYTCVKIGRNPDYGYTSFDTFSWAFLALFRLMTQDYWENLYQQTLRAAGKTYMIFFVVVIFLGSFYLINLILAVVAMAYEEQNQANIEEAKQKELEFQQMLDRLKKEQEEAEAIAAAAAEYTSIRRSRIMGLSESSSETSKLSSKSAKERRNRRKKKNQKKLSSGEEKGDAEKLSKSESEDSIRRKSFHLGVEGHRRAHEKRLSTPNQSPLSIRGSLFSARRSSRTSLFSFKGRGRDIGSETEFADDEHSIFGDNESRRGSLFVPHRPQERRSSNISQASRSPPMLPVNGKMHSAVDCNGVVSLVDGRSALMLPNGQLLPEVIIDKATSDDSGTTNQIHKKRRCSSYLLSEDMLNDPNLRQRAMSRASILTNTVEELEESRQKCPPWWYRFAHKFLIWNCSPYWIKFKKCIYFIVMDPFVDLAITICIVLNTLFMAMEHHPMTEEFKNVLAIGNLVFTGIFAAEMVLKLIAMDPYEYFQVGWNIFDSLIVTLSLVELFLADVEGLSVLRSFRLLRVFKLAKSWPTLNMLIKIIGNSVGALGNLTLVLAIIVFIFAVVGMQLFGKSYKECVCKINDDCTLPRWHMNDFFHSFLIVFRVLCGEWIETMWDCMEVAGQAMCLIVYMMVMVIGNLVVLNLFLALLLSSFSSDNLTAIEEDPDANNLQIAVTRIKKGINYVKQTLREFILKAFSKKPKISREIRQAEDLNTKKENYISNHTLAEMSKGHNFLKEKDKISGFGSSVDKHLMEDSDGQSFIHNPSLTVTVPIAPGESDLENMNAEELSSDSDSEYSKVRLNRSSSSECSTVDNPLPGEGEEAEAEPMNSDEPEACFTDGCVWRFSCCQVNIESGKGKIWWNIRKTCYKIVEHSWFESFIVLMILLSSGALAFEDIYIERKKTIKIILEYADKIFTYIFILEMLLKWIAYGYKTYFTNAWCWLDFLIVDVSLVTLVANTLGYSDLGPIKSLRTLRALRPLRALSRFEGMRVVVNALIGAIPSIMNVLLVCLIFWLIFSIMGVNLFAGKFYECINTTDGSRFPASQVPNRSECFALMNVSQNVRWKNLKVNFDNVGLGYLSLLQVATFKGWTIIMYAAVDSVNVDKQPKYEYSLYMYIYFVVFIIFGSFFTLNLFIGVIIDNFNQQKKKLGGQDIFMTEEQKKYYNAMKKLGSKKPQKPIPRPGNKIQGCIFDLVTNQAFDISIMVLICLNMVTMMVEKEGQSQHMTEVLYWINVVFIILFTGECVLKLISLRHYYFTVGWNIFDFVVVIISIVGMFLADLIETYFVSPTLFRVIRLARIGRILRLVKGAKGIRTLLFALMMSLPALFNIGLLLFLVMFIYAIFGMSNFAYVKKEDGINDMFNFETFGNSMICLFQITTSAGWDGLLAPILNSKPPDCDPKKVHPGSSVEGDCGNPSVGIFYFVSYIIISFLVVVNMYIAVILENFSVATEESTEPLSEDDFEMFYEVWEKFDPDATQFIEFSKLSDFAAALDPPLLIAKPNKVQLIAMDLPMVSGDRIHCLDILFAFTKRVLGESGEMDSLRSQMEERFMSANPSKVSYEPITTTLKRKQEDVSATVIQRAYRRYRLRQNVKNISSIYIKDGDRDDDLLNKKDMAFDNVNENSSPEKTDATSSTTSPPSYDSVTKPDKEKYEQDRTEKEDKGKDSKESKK

The test addresses human Nav1.7 (Homo sapiens (Human), UniProt Q15858). Put plainly: FRET-based membrane potential assay, recombinant human sodium channel Nav1.7. The conditions noted are these: HEK293 cells stably expressing recombinant human Nav1.7; depolarization with veratridine (EC80) + scorpion venom. The format is cell-based. The essentials: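 IC50 derived by four-parameter Hill fit of percent inhibition of depolarization, measured as peak F440-480/F565-625 ratio over baseline. Stable human Nav1.7 HEK293 cells, dye-loaded with CC2-DMPE and DiSBAC2(3)/VABSC-1 at room temperature, received compound 3 min ahead of veratridine (EC80) plus scorpion venom.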
As to `O=C1N(CC(=O)N2CC3CCC2C3)CCN1c1cccc2c1cnn2-c1ccccc1F` (stereo not drawn) [Example 202, 1-[2-(2-azabicyclo[2.2.1]hept-2-yl)-2-oxoethyl]-3-[1-(2-fluorophenyl)-1H-indazol-4-yl]imidazolidin-2-one], the IC50 was 0.681 µM.
With `C[C@@]1(c2cccc(F)c2)C[C@@H](N2CCN(c3cccc4c3cnn4-c3ccccc3F)C2=O)CO1` [Example 203, 2,5-anhydro-1,3,4-trideoxy-2-(3-fluorophenyl)-4-{3-[1-(2-fluorophenyl)-1H-indazol-4-yl]-2-oxoimidazolidin-1-yl}-L-threo-pentitol], the IC50 was found to be 3.67 µM.
In the case of `O=C1N(c2cccc3c2cnn3-c2ccccc2F)CCN1C1CCC(O)C1` (stereo not drawn) [Example 204, 1-[1-(2-fluorophenyl)-1H-indazol-4-yl]-3-(3-hydroxycyclopentyl)imidazolidin-2-one] it was 3.41 µM; in that of `O=C(CN1CCN(c2cccc3c2cnn3-c2ccccc2F)C1=O)N1CC(F)C(F)C1` (stereo not drawn) [Example 206, 1-[2-(3,4-difluoropyrrolidin-1-yl)-2-oxoethyl]-3-[1-(2-fluorophenyl)-1H-indazol-4-yl]imidazolidin-2-one], 1.06 µM.
In the case of `O=C1N(c2cncc(N3CCOCC3)c2)CCN1c1cccc2c1cnn2-c1ccccc1F` [Example 207, 1-[1-(2-fluorophenyl)-1H-indazol-4-yl]-3-[5-(morpholin-4-yl)pyridin-3-yl]imidazolidin-2-one], the 50% inhibitory concentration (IC50) stood at 1.87 µM.
To `O=C1N(c2cccnn2)CCN1c1cccc2c1cnn2-c1ccccc1F` [Example 208, 1-[1-(2-fluorophenyl)-1H-indazol-4-yl]-3-(pyridazin-3-yl)imidazolidin-2-one] belongs 3.26 µM; to `O=C(CN1CCN(c2cccc3c2cnn3-c2ccccc2F)C1=O)NCC1CC1` [Example 209, N-(cyclopropylmethyl)-2-{3-[1-(2-fluorophenyl)-1H-indazol-4-yl]-2-oxoimidazolidin-1-yl}acetamide], 1.06 µM; to `O=C1N(Cc2ccncc2)CCN1c1cccc2c1cnn2-c1ccccc1F` [Example 210, 1-[1-(2-fluorophenyl)-1H-indazol-4-yl]-3-(pyridin-4-ylmethyl)imidazolidin-2-one], 3.33 µM.
To `Cc1nc(CN2CCN(c3cccc4c3cnn4-c3ccccc3F)C2=O)co1` [Example 211, 1-[1-(2-fluorophenyl)-1H-indazol-4-yl]-3-[(2-methyl-1,3-oxazol-4-yl)methyl]imidazolidin-2-one] belongs 1.9 µM; to `O=C1N(CC(=O)N2[C@H]3CC[C@@H]2CC3)CCN1c1cccc2c1cnn2-c1ccccc1F` [Example 212, 1-{2-[(1s,4s)-7-azabicyclo[2.2.1]hept-7-yl]-2-oxoethyl}-3-[1-(2-fluorophenyl)-1H-indazol-4-yl]imidazolidin-2-one], 1.14 µM.
For `CC1(CN2CCN(c3cccc4c3cnn4-c3ccccc3F)C2=O)COC1` [Example 213, 1-[1-(2-fluorophenyl)-1H-indazol-4-yl]-3-[(3-methyloxetan-3-yl)methyl]imidazolidin-2-one], the 50% inhibitory concentration (IC50) was determined as 3.65 µM.
As for `CO[C@H](CC(C)C)CN1CCN(c2cccc3c2cnn3-c2ccccc2F)C1=O` [Example 214, 1-[1-(2-fluorophenyl)-1H-indazol-4-yl]-3-[(2R)-2-methoxy-4-methylpentyl]imidazolidin-2-one], the IC50 was determined as 2.02 µM.
In the case of `CO[C@@H](CC(C)C)CN1CCN(c2cccc3c2cnn3-c2ccccc2F)C1=O` [Example 215, 1-[1-(2-fluorophenyl)-1H-indazol-4-yl]-3-[(2S)-2-methoxy-4-methylpentyl]imidazolidin-2-one] it was 1.08 µM.
With `CC(=O)N1CC(CN2CCN(c3cccc4c3cnn4-c3ccccc3F)C2=O)C1` [Example 216, 1-[(1-acetylazetidin-3-yl)methyl]-3-[1-(2-fluorophenyl)-1H-indazol-4-yl]imidazolidin-2-one], the half-inhibitory concentration (IC50) amounted to 20 µM.
To `Cc1nc(CN2CCN(c3cccc4c3cnn4-c3ccccc3F)C2=O)cs1` [Example 217, 1-[1-(2-fluorophenyl)-1H-indazol-4-yl]-3-[(2-methyl-1,3-thiazol-4-yl)methyl]imidazolidin-2-one] belongs 1.07 µM; to `O=C1N(Cc2ncccn2)CCN1c1cccc2c1cnn2-c1ccccc1F` [Example 218, 1-[1-(2-fluorophenyl)-1H-indazol-4-yl]-3-(pyrimidin-2-ylmethyl)imidazolidin-2-one], 2.76 µM; to `Cc1cnc(CN2CCN(c3cccc4c3cnn4-c3ccccc3F)C2=O)nc1` [Example 219, 1-[1-(2-fluorophenyl)-1H-indazol-4-yl]-3-[(5-methylpyrimidin-2-yl)methyl]imidazolidin-2-one], 5.21 µM.
In the case of `O=C1N(CCc2cccnc2)CCN1c1cccc2c1cnn2-c1ccccc1F` [Example 220, 1-[1-(2-fluorophenyl)-1H-indazol-4-yl]-3-[2-(pyridin-3-yl)ethyl]imidazolidin-2-one], the IC50 is 1.84 µM.
To `O=C1N(c2nccs2)CCN1c1cccc2c1cnn2-c1ccccc1F` [Example 221, 1-[1-(2-fluorophenyl)-1H-indazol-4-yl]-3-(1,3-thiazol-2-yl)imidazolidin-2-one] belongs 9.5 µM; to `O=C1N(Cc2ccncn2)CCN1c1cccc2c1cnn2-c1ccccc1F` [Example 222, 1-[1-(2-fluorophenyl)-1H-indazol-4-yl]-3-(pyrimidin-4-ylmethyl)imidazolidin-2-one], 11.2 µM.
Consider `O=C1N(CC2CCO2)CCN1c1cccc2c1cnn2-c1ccccc1F` (stereo not drawn) [Example 223, 1-[1-(2-fluorophenyl)-1H-indazol-4-yl]-3-(oxetan-2-ylmethyl)imidazolidin-2-one], for which the 50% inhibitory concentration (IC50) was 11.2 µM.
For the compound `O=C1N(c2cccc3c2cnn3-c2ccccc2F)CCN1[C@H]1CCOC1` [Example 224, 1-[1-(2-fluorophenyl)-1H-indazol-4-yl]-3-[(3S)-tetrahydrofuran-3-yl]imidazolidin-2-one], the IC50 was determined as 3.6 µM.
In the case of `O=C1N(Cc2cocn2)CCCN1c1cccc2c1cnn2-c1ccccc1F` [Example 225, 1-[1-(2-fluorophenyl)-1H-indazol-4-yl]-3-(1,3-oxazol-4-ylmethyl)tetrahydropyrimidin-2(1H)-one] it was 14 µM; in that of `O=C1N(c2cnccn2)CCN1c1cccc2c1cnn2-c1ccccc1F` [Example 226, 1-[1-(2-fluorophenyl)-1H-indazol-4-yl]-3-(pyrazin-2-yl)imidazolidin-2-one], 3.37 µM.
To `Cc1nc(CN2CCN(c3cccc4c3cnn4-c3ccccc3F)C2=O)c(C)o1` [Example 227, 1-[(2,5-dimethyl-1,3-oxazol-4-yl)methyl]-3-[1-(2-fluorophenyl)-1H-indazol-4-yl]imidazolidin-2-one] belongs 0.871 µM.
On to `Cc1cncc(CN2CCN(c3cccc4c3cnn4-c3ccccc3F)C2=O)c1` [Example 228, 1-[1-(2-fluorophenyl)-1H-indazol-4-yl]-3-[(5-methylpyridin-3-yl)methyl]imidazolidin-2-one], for which the half-inhibitory concentration (IC50) turned out to be 1.09 µM.
On to `O=C1N(CC2(OCc3ccccc3)CC2)CCN1c1cccc2c1cnn2-c1ccccc1F` [Example 229, 1-{[1-(benzyloxy)cyclopropyl]methyl}-3-[1-(2-fluorophenyl)-1H-indazol-4-yl]imidazolidin-2-one], for which the concentration for half-maximal inhibition (IC50) turned out to be 9.08 µM.

One may read the IC50 as the concentration needed to halve the response being measured.
